IC50 data for 36 compounds are collected here from patent publication USRE45173E1, “Inhibitors of CYP 17” (Novartis AG, priority 2009, dated 2014).

Where a name gives a salt, the structure may show the parent alone.

Sequence of recombinant human CYP17 enzyme (P05093 whole entry): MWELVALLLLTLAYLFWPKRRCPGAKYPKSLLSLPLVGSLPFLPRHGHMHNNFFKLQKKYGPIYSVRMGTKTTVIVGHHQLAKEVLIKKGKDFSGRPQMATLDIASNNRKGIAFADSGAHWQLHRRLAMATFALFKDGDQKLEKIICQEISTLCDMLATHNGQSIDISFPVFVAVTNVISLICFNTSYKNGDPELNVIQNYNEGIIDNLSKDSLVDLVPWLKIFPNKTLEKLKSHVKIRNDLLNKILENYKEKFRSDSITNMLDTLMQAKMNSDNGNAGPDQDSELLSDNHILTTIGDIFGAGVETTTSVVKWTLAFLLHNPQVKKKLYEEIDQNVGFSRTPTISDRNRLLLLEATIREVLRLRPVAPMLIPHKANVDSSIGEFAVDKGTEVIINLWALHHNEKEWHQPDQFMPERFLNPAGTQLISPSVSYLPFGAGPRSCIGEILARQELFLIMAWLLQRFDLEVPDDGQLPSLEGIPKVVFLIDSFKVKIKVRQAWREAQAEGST

The target of the first assay is recombinant human CYP17 enzyme (Homo sapiens (Human), UniProt P05093). The experiment in a line: Cytochrome P450, 17-20 lyase (CYP17-lyase) assay, tritiated acetic acid release from 17-α-hydroxy pregnenolone [21-3H]. It counts as biochemical. The settings on record: human CYP17, substrate 0.25 μM; read-out: Lyase IC 50 nM Human/Rat (Human). An excerpt:
Assay method was adopted from a published protocol with some modifications to suit our requirements (Dmitry N Grigoryev et al, Analytical Biochemistry, (1999) 267, 319-330). […] Chloroform extraction removes the radioactive steroids and acetic acid is taken into aqueous layer. The tritiated acetic acid released in the assay thus extracted is quantified to determine the enzyme activity. […] The purified cell membrane preparations were used as the source for Human CYP17 enzyme. […] O, Nijar, et al., J Med Chem, (1998) 41, 902-912). […] Km for this substrate was determined by monitoring the tritiated acetic acid release as a function of substrate concentration. […] For the Km determination, the data was fit to a hyperbolic equation (Graphpad Prism® software IV). […] (Dmitry N. Grigoryev et al, Analytical Biochemistry (1999) 267, 319-330) […] NADPH is used at a final concentration of 4.2 mM. Total reaction volume was made up to 50 μL with 50 mM Phosphate buffer pH 7.5. The reaction mixture was incubated at room temperature for 90 minutes with gentle shaking. The reaction was stopped by the addition of 100 μL of buffer. 500 μL of 5% freshly prepared activated charcoal was added to the solution and mixed well by vortexing. The samples were centrifuged at 17568×g for 5 minutes. (14000 rpm). The supernatant was carefully transferred to fresh tube and 1.3 mL of scintillation fluid was added, mixed by vortexing. The radioactivity was measured in a 1450 MicroBeta TriLux™ scintillation counter from Wallac-Perkin Elmer®, USA. The measurements were carried out in 2.0 mL Eppendorforf™ tubes. […] The amount of tritiated acetic acid released is proportional to the lyase activity. Percent lyase activity in presence of inhibitor was calculated using the formula given below. […] Enzyme reaction in presence of inhibitor. • Positive control: […] For IC50 determination, the % inhibition was plotted as a function of inhibitor concentration. The data was fitted to sigmoidal equation using Graphpad Prism® software IV to generate IC50 values.
On to `Cc1ccncc1N1CCN(c2csc3ccncc23)C1=O` [Example 136A, 1-(4-Methyl-pyridin-3-yl)-3-thieno[3,2-c]pyridin-3-yl-imidazolidin-2-one], for which the IC50 came to 500 nM.
Turning to `Cc1ccncc1N1CCN(c2cn(C)c3ccc(Cl)cc23)C1=O` [Example 137A, 1-(5-Chloro-1-methyl-1H-indol-3-yl)-3-(4-methyl-pyridin-3-yl)-imidazolidin-2-one], the IC50 came out at 1550 nM.
On the same count and under the same terms, the value for `Cc1ccncc1N1CCN(c2ccc3c(c2)CCC3)C1=O` [Example 138A, 1-Indan-5-yl-3-(4-methyl-pyridin-3-yl)-imidazolidin-2-one] was 13 nM; that for `Cc1ccncc1-n1ccn(-c2ccc3sccc3c2)c1=O` [Example 139A, 1-Benzo[b]thiophen-5-yl-3-(4-methyl-pyridin-3-yl)-1,3-dihydro-imidazol-2-one] was 83 nM.
As for `Cc1ccncc1N1CCN(c2ccc(C#N)c(F)c2)C1=O` [Example 140A, 2-Fluoro-4-[3-(4-methyl-pyridin-3-yl)-2-oxo-imidazolidin-1-yl]-benzonitrile], the IC50 came to 97 nM.
For `Cc1ccncc1N1CCN(c2ccc3[nH]nnc3c2)C1=O` [Example 141A, 1-(1H-Benzotriazol-5-yl)-3-(4-methyl-pyridin-3-yl)-imidazolidin-2-one Hydrochloride], the IC50 was determined as 13 nM.
On the same count and under the same terms, for `Cc1ccncc1-n1ccn(-c2ccc3ncsc3c2)c1=O` [Example 142A, 1-Benzothiazol-6-yl-3-(4-methyl-pyridin-3-yl)-1,3-dihydro-imidazol-2-one] the value was 21 nM; for `Cc1ccncc1N1CCN(c2ccc3c(N)nn(C)c3c2)C1=O` [Example 143A, 1-(3-Amino-1-methyl-1H-indazol-6-yl)-3-(4-methyl-pyridin-3-yl)-imidazolidin-2-one], 116 nM; for `Cc1ccncc1N1CCN(c2ccc3cc[nH]c3c2)C1=O` [Example 144A, 1-(1H-Indol-6-yl)-3-(4-methyl-pyridin-3-yl)-imidazolidin-2-one], 174 nM.
Same read-out and setting: the value for `Cc1ccncc1N1CCN(c2ccn3c(Cl)cnc3c2)C1=O` [Example 145A, 1-(3-Chloro-imidazo[1,2-a]pyridin-7-yl)-3-(4-methyl-pyridin-3-yl)-imidazolidin-2-one] was 31 nM.
Still for that read-out and setting: for `Cc1ccncc1N1CCN(c2ccc3c(c2)C(C)(C)C(=O)N3CO)C1=O` [Example 147A, 1-Hydroxymethyl-3,3-dimethyl-5-[3-(4-methyl-pyridin-3-yl)-2-oxo-imidazolidin-1-yl]-1,3-dihydro-indol-2-one] the value was 346 nM; for `Cc1ccncc1N1CCN(c2ccnc(C(F)(F)F)c2)C1=O` [Example 148A, 1-(4-Methyl-pyridin-3-yl)-3-(2-trifluoromethyl-pyridin-4-yl)-imidazolidin-2-one], 25 nM; for `COC(OC)c1ccncc1N1CCN(c2ccc3ncsc3c2)C1=O` [Example 149A, 1-Benzothiazol-6-yl-3-(4-dimethoxymethyl-pyridin-3-yl)-imidazolidin-2-one], 37 nM.
For `CC(=O)Nc1ccncc1N1CCN(c2ccc3ncsc3c2)C1=O` [Example 150A, N-[3-(3-Benzothiazol-6-yl-2-oxo-imidazolidin-1-yl)-pyridin-4-yl]-acetamide], the IC50 worked out at 496 nM.
As to `Cc1c(Cl)cncc1N1CCN(c2ccc3ncsc3c2)C1=O` [Example 151A, 1-Benzothiazol-6-yl-3-(5-chloro-4-methyl-pyridin-3-yl)-imidazolidin-2-one], the IC50 amounted to 13.3 nM.
Still for that read-out and setting: for `Nc1ccncc1N1CCN(c2ccc3ncsc3c2)C1=O` [Example 152A, 1-(4-Amino-pyridin-3-yl)-3-benzothiazol-6-yl-imidazolidin-2-one Hydrochloride Salt] the value was 7 nM; for `Cc1ccncc1N1CCN(c2ccc(C(F)(F)F)s2)C1=O` [Example 155A, 1-(4-Methylpyridin-3-yl)-3-(5-(trifluoromethyl)thiophen-2-yl)-imidazolidin-2-one], 2.7 nM; for `CC(O)c1ccncc1N1CCN(c2ccc3ncsc3c2)C1=O` (stereo not drawn) [Example 158A, 1-(benzo[d]thiazol-6-yl)-3-(4-(1-hydroxyethyl)pyridin-3-yl)imidazolidin-2-one], 38 nM.
The same measure, in the same setting: the value for `CCc1ccncc1N1CCN(c2ccc3ncsc3c2)C1=O` [Example 159A, 1-(benzo[d]thiazol-6-yl)-3-(4-ethylpyridin-3-yl)imidazolidin-2-one] was 3.4 nM; that for `Cc1ccncc1N1CCN(c2ccc3c(C(F)(F)F)n[nH]c3c2)C1=O` [Example 160A, 1-(4-methylpyridin-3-yl)-3-(3-(trifluoromethyl)-1H-indazol-6-yl)imidazolidin-2-one] was 34 nM; that for `Cc1ccncc1N1CCN(c2ccc3c(C4CC4)n[nH]c3c2)C1=O` [Example 161A, 1-(3-Cyclopropyl-1H-indazol-6-yl)-3-(4-methylpyridin-3-yl)imidazolidin-2-one] was 82 nM.
The same measure, in the same setting: for `Cc1ccncc1N1CCN(c2ccc3cccnc3c2)C1=O` [Example 162A, 1-(4-methylpyridin-3-yl)-3-(quinolin-7-yl)imidazolidin-2-one] the value was 317 nM; for `CC1(C)CN(c2ccc3ncsc3c2)C(=O)N1c1cccnc1` [Example 164A, 1-Benzothiazol-6-yl-4,4-dimethyl-3-pyridin-3-yl-imidazolidin-2-one], 70 nM; for `Cc1ccncc1N1C(=O)N(c2ccc3ncsc3c2)CC1(C)C` [Example 165A, 1-Benzothiazol-6-yl-4,4-dimethyl-3-(4-methyl-pyridin-3-yl)-imidazolidin-2-one], 1150 nM.
For the compound `Cc1ccncc1N1CC(C)N(c2ccc3ncsc3c2)C1=O` (stereo not drawn) [Example 166A, 3-Benzothiazol-6-yl-4-methyl-1-(4-methyl-pyridin-3-yl)-imidazolidin-2-one], the IC50 came to 32 nM.
The same measure, in the same setting: for `Cc1ccncc1N1C(=O)N(c2ccc3ncsc3c2)CC1C` (stereo not drawn) [Example 167A, 1-Benzothiazol-6-yl-4-methyl-3-(4-methyl-pyridin-3-yl)-imidazolidin-2-one] the value was 38 nM.
Same read-out and setting: for `CCc1cn(-c2ccc3ncsc3c2)c(=O)n1-c1cnccc1C` [Example 168A, 1-Benzothiazol-6-yl-4-ethyl-3-(4-methyl-pyridin-3-yl)-1,3-dihydro-imidazol-2-one] the value was 384 nM; for `Cc1ccncc1N1C(=O)N(c2ccc3ncsc3c2)C(C)C1C` (stereo not drawn) [Example 175A, 1-Benzothiazol-6-yl-4,5-dimethyl-3-(4-methyl-pyridin-3-yl)-imidazolidin-2-one], 85 nM.
As to `O=C1N(c2ccc3ncsc3c2)CCN1c1cnccc1CN1CCCC1` [Example 176A, 1-Benzothiazol-6-yl-3-(4-pyrrolidin-1-ylmethyl-pyridin-3-yl)-imidazolidin-2-one], the IC50 stood at 39 nM.
Same read-out and setting: the value for `O=C1N(c2ccc3ncsc3c2)CCN1c1cnccc1CN1CCOCC1` [Example 177A, 1-benzothiazol-6-yl-3-(4-morpholin-4-ylmethyl-pyridin-3-yl)-imidazolidin-2-one] was 32 nM; that for `O=C1N(c2ccc3ncsc3c2)CCN1c1cnccc1CNC1CC1` [Example 178A, 1-Benzothiazol-6-yl-3-(4-cyclopropylaminomethyl-pyridin-3-yl)-imidazolidin-2-one] was 19 nM.
On the same count and under the same terms, the value for `Cc1cc(NCc2ccncc2N2CCN(c3ccc4ncsc4c3)C2=O)n[nH]1` [Example 182A, 1-Benzothiazol-6-yl-3-{4-[(5-methyl-1H-pyrazol-3-ylamino)-methyl]-pyridin-3-yl}-imidazolidin-2-one] was 27 nM.

Staying with this assay, now noted: human CYP17, substrate 0.25 μM; read-out: Lyase IC 50 Human/Rat (Human).
For `Cc1ccncc1N1CCN(c2cn(C)c3cccc(C#N)c23)C1=O` [Example 146A, 1-Methyl-3-[3-(4-methyl-pyridin-3-yl)-2-oxo-imidazolidin-1-yl]-1H-indole-4-carbonitrile], the IC50 is more than 10000 nM.
Same read-out and setting: for `CC(C)(O)c1ccncc1N1CCN(c2ccc3ncsc3c2)C1=O` [Example 156A, 1-(benzo[d]thiazol-6-yl)-3-(4-(2-hydroxypropan-2-yl)pyridin-3-yl)imidazolidin-2-one] the value was more than 10000 nM; for `Cc1ccncc1N1CC(C)(C)N(c2ccc3ncsc3c2)C1=O` [Example 163A, 3-Benzothiazol-6-yl-4,4-dimethyl-1-(4-methyl-pyridin-3-yl)-imidazolidin-2-one], more than 10000 nM.

Staying with this assay, now noted: read-out: Lyase IC 50 nM Human/Rat (Human).
For `Cc1c(N2CCN(c3ccc4ncsc4c3)C2=O)cncc1C(F)(F)F` [Example 153A, 1-(benzo[d]thiazol-6-yl)-3-(4-methyl-5-(trifluoromethyl)pyridin-3-yl)imidazolidin-2-one, Trifluoroacetic Acid Salt], the IC50 worked out at 280 nM.
